Reference: ChEMBL document CHEMBL3045345, “Computer simulation of the in vitro and in vivo anti-inflammatory activities of dihydropyrimidines acid derivatives through the inhibition of cyclooxygenase-2” (Med Chem Res, 2013)
The source made the active and inactive calls. No cut-off for these calls is given here.

Experiments:
Rattus norvegicus [1] = experiment: Anti-inflammatory activity in Rattus norvegicus (rat) assessed as inhibition of carrageenan-induced paw edema at 100 mg/kg, po treated 60 min prior to carrageenan injection measured after 1 to 5 hr; format: functional
[2] = molecular target: T1, Prostaglandin G/H synthase 1 (Ovis aries, UniProt P05979); experiment: Inhibition of Ovis aries (sheep) COX-1 assessed as decrease in PGF2a production from PGH2 upon reduction with stannous chloride using arachidonic acid as substrate pre-incubated with enzyme for 5 min prior to substrate addition by enzyme immunoassay
T1 sequence (P05979 whole entry): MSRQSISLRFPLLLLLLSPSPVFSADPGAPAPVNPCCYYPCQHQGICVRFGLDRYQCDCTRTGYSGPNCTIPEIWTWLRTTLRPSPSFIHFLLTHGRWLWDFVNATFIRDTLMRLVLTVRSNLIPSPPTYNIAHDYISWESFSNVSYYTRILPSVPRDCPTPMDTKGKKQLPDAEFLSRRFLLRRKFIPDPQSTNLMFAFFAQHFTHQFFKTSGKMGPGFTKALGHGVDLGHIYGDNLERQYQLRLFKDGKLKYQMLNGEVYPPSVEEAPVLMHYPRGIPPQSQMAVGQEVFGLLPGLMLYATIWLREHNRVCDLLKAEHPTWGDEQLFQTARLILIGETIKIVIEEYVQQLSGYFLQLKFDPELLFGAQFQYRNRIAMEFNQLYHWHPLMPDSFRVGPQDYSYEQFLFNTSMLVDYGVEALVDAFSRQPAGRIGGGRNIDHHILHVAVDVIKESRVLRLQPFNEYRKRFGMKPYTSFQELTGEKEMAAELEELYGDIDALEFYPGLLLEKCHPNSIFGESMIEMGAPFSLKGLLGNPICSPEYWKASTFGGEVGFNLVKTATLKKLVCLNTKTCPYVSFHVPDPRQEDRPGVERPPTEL

Rattus norvegicus [3] = experiment: Anti-inflammatory activity in Rattus norvegicus (rat) assessed as inhibition of carrageenan-induced paw edema at 100 mg/kg, po treated 60 min prior to carrageenan injection measured after 1 to 5 hr relative to ibuprofen; format: functional

Row | IC50 [2] [µM] | Compound | inhibition (Rattus norvegicus [1]) | inhibition in vivo at 100 mg/kg (Rattus norvegicus [1]) [%] | inhibition in vivo at 100 mg/kg (Rattus norvegicus [3]) [%]
1 | – | CN(C)c1ccc(/C=C/C2=C(C(=O)O)C(c3ccc(N(C)C)cc3)NC(=O)N2)cc1 (centres undefined) | inactive | – | –
2 | – | O=C1NC(/C=C/c2ccc(O)cc2)=C(C(=O)O)C(c2ccc(O)cc2)N1 (centres undefined) | – | 12 | –
3 | 14.7 | COc1ccc(/C=C/C2=C(C(=O)O)C(c3ccc(OC)cc3)NC(=O)N2)cc1 (centres undefined) | – | 23 | 41
4 | – | O=C1NC(/C=C/c2ccc([N+](=O)[O-])cc2)=C(C(=O)O)C(c2ccc([N+](=O)[O-])cc2)N1 (centres undefined) | inactive | – | –
5 | 14.3 | COc1ccc(/C=C/C2=C(C(=O)O)C(c3ccc(OC)cc3)NC(=S)N2)cc1 (centres undefined) | – | 38 | 38
6 | – | O=C1NC(/C=C/c2ccccc2)=C(C(=O)O)C(c2ccccc2)N1 (centres undefined) | – | 16 | –
7 | – | O=C(O)C1=C(/C=C/c2ccccc2)NC(=S)NC1c1ccccc1 (centres undefined) | inactive | – | –
8 | – | O=C(O)C1=C(/C=C/c2ccc(O)cc2)NC(=S)NC1c1ccc(O)cc1 (centres undefined) | inactive | – | –
9 | – | CC(C)Cc1ccc(C(C)C(=O)O)cc1 (centres undefined) [IBUPROFEN] | – | 56 | –
10 | – | CN(C)c1ccc(/C=C/C2=C(C(=O)O)C(c3ccc(N(C)C)cc3)NC(=S)N2)cc1 (centres undefined) | inactive | – | –
